Here are results for seven compounds from paper PMC6274227, “Interactions of Bovine Serum Albumin with Anti-Cancer Compounds Using a ProteOn XPR36 Array Biosensor and Molecular Docking” (Molecules, 2016).

Data set [1] deals with T1, bovine serum albumin (BSA) (Bos taurus, UniProt P02769). The data set can be described thus: ProteOn XPR36 SPR array biosensor binding to immobilized BSA. The conditions noted are these: for binding to the immobilized BSA (sensorgram): SPR, PBS-T buffer pH 7.4, 25 °C; for koff / kon: bovine, pH 7.4. As to the method:
The GLH sensor chip, consisting of glass prisms coated with gold and an alginate-based layer, was an ideal choice for examining protein-small molecule interactions. The chip was initialized with 50% glycerol for several minutes prior to use.
Following initialization, the GLH sensor chip was washed with 0.5% SDS, 50 mM NaOH and 100 mM HCl, respectively, for 1 min each, at a flow rate of 100 µL/min. PBS-T buffer (10 mM sodium phosphate, 150 mM NaCl, and 0.005% Tween 20, pH 7.4) was then injected in three pulses for baseline stabilization.
One of the six channels was activated with a mixture of EDC (40 mM) and sulfo-NHS (10 mM) in the horizontal direction for 3 min, at a flow rate of 30 µL/min. BSA (2 mg/mL) was diluted to 300 nM in 10 mM sodium acetate (pH 4.0) and immobilized on the channel for 5 min, at a flow rate of 30 µL/min. Next, the channel was blocked by injection of 1 M ethanolamine-HCl for 5 min. […] Baseline equilibration was performed by multiple washes with running buffer (PBS-T) across the chip surface for 1 h.
Each compound was tested at six concentrations using a two-fold dilution series. Gradient concentrations of each compound were simultaneously injected over the BSA-immobilized surface at a flow rate of 30 µL/min in the vertical direction, where the association and dissociation times were 80 s and 60 s, respectively. All interaction analyses were performed at 25 °C.
All sensorgrams for protein binding were collected, processed, and analyzed using the ProteOn Manager software. We utilized two types of reference sources, the standard blank buffer reference, and interspot reference, which was the average response before and after each interaction spot to correct for nonspecific binding. The target protein was washed off in the dissociation phase, which caused baseline drift, although real-time injection of a blank reference can completely correct this baseline drift by subtracting artifacts in real time. The dual references were both subtracted from the interaction spot data to correct for any bulk shifts due to baseline drift and nonspecific binding. Finally, the data for each compound collected over the same target protein were globally fit to a Langmuir 1:1 binding model with a global ka and kd, where ka is the association rate constant and kd is the dissociation rate constant for the protein-small molecule binding. The ratio of (kd/ka) indicated the value for the equilibrium dissociation constant (KD).

The target in data set [2] is T1, bovine serum albumin (BSA). The arrangement: I (residues 1–183), II (184–376), III (377–583); purchased Sigma-Aldrich; method as in doi:10.1016/j.molstruc.2008.01.013. The conditions noted are these: under physiological conditions; cited from earlier work.

T1 sequence (P02769 25-607): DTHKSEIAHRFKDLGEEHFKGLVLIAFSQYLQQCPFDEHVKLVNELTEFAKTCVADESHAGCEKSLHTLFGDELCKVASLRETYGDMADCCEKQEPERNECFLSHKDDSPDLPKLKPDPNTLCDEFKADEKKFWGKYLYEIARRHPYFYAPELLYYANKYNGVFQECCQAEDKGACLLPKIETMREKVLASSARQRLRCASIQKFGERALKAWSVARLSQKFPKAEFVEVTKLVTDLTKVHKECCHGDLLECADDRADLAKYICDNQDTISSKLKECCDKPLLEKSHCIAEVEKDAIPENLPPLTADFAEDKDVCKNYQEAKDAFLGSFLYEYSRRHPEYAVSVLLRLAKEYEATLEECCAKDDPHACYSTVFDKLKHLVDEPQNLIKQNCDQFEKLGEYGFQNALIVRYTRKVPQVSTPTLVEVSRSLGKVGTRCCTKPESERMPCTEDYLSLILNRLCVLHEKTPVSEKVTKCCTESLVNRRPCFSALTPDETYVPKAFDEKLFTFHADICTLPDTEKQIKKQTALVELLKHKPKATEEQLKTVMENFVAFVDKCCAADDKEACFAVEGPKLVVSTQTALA

As for `C[C@@H]1O[C@@H](O[C@@H]2[C@@H](O)[C@H](OCCc3ccc(O)c(O)c3)O[C@H](CO)[C@H]2OC(=O)/C=C/c2ccc(O)c(O)c2)[C@H](O)[C@H](O)[C@H]1O` [acteoside, Acteoside], in data set [1], the dissociation constant Kd was 740 ± 360 µM, the “binding to the immobilized BSA (sensorgram)” value (“binding to the immobilized BSA” below) was “able to reversibly bind”, the koff was determined as 0.09 ± 0.02 s⁻¹ and the kon worked out at 149 M⁻¹ s⁻¹.
In the case of `COc1cccc2c1C(=O)c1c(O)c3c(c(O)c1C2=O)C[C@@](O)(C(=O)CO)C[C@@H]3O[C@H]1C[C@H](N)[C@H](O)[C@H](C)O1` [doxorubicin, Doxorubicin, reference compound], in data set [1], the “binding to the immobilized BSA” value is “able to reversibly bind”, the dissociation rate constant (koff) worked out at 0.73 ± 0.03 s⁻¹ and the association rate constant (kon) came to 2 M⁻¹ s⁻¹. For the same compound, the “difference in affinity for BSA between weakest and strongest binding compound” value in data set [1] (doxorubicin (weakest) versus salvianolic acid B (strongest)) is given as “greater than 1000 fold”.
For the compound `O=C(O)c1cc(O)c(O)c(O)c1` [gallic acid, Gallic acid], binding in data set [1] was put at a Kd of 510 ± 250 µM.
As for `OC[C@H]1O[C@@H](OCCc2ccc(O)cc2)[C@H](O)[C@@H](O)[C@@H]1O` [salidroside, Salidroside], the “binding to BSA via spectroscopic investigation” value in data set [2] is on record as “could bind to BSA”. Besides, the “binding to the immobilized BSA” value in data set [1] was “no such binding”.
Consider `O=C(/C=C/c1ccc(O)c2c1[C@H](C(=O)O[C@H](Cc1ccc(O)c(O)c1)C(=O)O)[C@@H](c1ccc(O)c(O)c1)O2)O[C@H](Cc1ccc(O)c(O)c1)C(=O)O` [salvianolic acid B, Salvianolic acid B], for which, in data set [1], binding was put at a Kd of 230 ± 70 µM, the “binding to the immobilized BSA” value was “able to reversibly bind”, the koff was determined as 0.59 ± 0.24 s⁻¹ and the kon is 2500 M⁻¹ s⁻¹.
Turning to `CC[C@]1(O)C[C@H]2CN(CCc3c([nH]c4ccccc34)[C@@](C(=O)OC)(c3cc4c(cc3OC)N(C=O)[C@H]3[C@@](O)(C(=O)OC)[C@H](OC(C)=O)[C@]5(CC)C=CCN6CC[C@]43[C@@H]65)C2)C1` [vincristine, Vincristine, reference compound], in data set [1], the dissociation constant (Kd) came to 2560 ± 430 µM, the “binding to the immobilized BSA” value was “able to reversibly bind”, the off-rate (koff) is 1.96 ± 0.2 s⁻¹ and the kon was found to be 784 M⁻¹ s⁻¹.
Consider Echinacoside, for which the “binding to the immobilized BSA” value in data set [1] is “able to reversibly bind”.

As usually defined, the Kd is the equilibrium constant for the complex coming apart. The koff is the rate constant with which the complex falls apart. In general, kon refers to the rate constant with which the complex forms. Read a high kon as faster complex formation.
